According to PubChem BioAssay AID2060894 (Molecular Pharmacology Branch, DTP, NCI, 2025):

Test system: K12877-001-R-J1-PDC complex spheroid viability
Test: Anticancer human tumor K12877-001-R-J1-PDC patient-derived lung adenocarcinoma cell line growth inhibition [RAS]
Settings: for IC50: curve of first compound; for viability, T/C: stronger effect = lower value
Summary of the method: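 Tumour cells grown as complex spheroids with HUVEC endothelial cells and mesenchymal stem cells, treated with RAS pathway inhibitor combinations. Each agent spans half-log steps from near clinical Cmax, or 10 microM where Cmax is unknown.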

[1] = second compound 0.0316 µM, first compound 0.00316 µM
[2] = second compound 0.0316 µM, first compound 0.01 µM
[3] = second compound 0.0316 µM, first compound 0.0316 µM
[4] = second compound 0.0316 µM, first compound 0.1 µM
[5] = second compound 0.0316 µM, first compound 0.316 µM
[6] = second compound 0.0316 µM, first compound 1 µM
[7] = second compound 0.1 µM, first compound 0.00316 µM
[8] = second compound 0.1 µM, first compound 0.01 µM
[9] = second compound 0.1 µM, first compound 0.0316 µM
[10] = second compound 0.1 µM, first compound 0.1 µM
[11] = second compound 0.1 µM, first compound 0.316 µM
[12] = second compound 0.1 µM, first compound 1 µM
[13] = second compound 0.316 µM, first compound 0.00316 µM
[14] = second compound 0.316 µM, first compound 0.01 µM
[15] = second compound 0.316 µM, first compound 0.0316 µM
[16] = second compound 0.316 µM, first compound 0.1 µM
[17] = second compound 0.316 µM, first compound 0.316 µM
[18] = second compound 0.316 µM, first compound 1 µM
[19] = second compound 1 µM, first compound 0.00316 µM
[20] = second compound 1 µM, first compound 0.01 µM
[21] = second compound 1 µM, first compound 0.0316 µM
[22] = second compound 1 µM, first compound 0.1 µM
[23] = second compound 1 µM, first compound 0.316 µM
[24] = second compound 1 µM, first compound 1 µM
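Also: spheroids exposed to agents for one week before readout.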
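For viability, T/C in this document: tumour cells co-cultured with HUVEC and mesenchymal stem cells in spheroids.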

SMILES: CCN1CCN(Cc2ccc(Nc3ncc(F)c(-c4cc(F)c5nc(C)n(C(C)C)c5c4)n3)nc2)CC1 + C#Cc1c(F)ccc2cc(O)cc(-c3ncc4c(N5CC6CCC(C5)N6)nc(OCC56CCCN5CC(F)C6)nc4c3F)c12
- IC50 (second compound 0.0316 µM): > 1000 nM
- IC50 (second compound 0.1 µM): > 1000 nM
- IC50 (second compound 0.316 µM): > 1000 nM
- IC50 (second compound 1 µM): > 1000 nM
- IC50 (second compound 3.16 µM): > 1000 nM
- IC50 (second compound 10 µM): > 1000 nM
- viability, T/C [1]: 106%
- viability, T/C [2]: 101%
- viability, T/C [3]: 106%
- viability, T/C [4]: 85.6%
- viability, T/C [5]: 118%
- viability, T/C [6]: 97.2%
- viability, T/C [7]: 97.9%
- viability, T/C [8]: 102%
- viability, T/C [9]: 113%
- viability, T/C [10]: 97.8%
- viability, T/C [11]: 118%
- viability, T/C [12]: 88.4%
- viability, T/C [13]: 115%
- viability, T/C [14]: 107%
- viability, T/C [15]: 98.6%
- viability, T/C [16]: 99.2%
- viability, T/C [17]: 109%
- viability, T/C [18]: 108%
- viability, T/C [19]: 109%
- viability, T/C [20]: 113%
- viability, T/C [21]: 96.7%
- viability, T/C [22]: 104%
- viability, T/C [23]: 108%
- viability, T/C [24]: 82.2%
- viability, T/C (second compound 3.16 µM, first compound 0.00316 µM): 108%
- viability, T/C (second compound 3.16 µM, first compound 0.01 µM): 105%
- viability, T/C (second compound 3.16 µM, first compound 0.0316 µM): 97%
- viability, T/C (second compound 3.16 µM, first compound 0.1 µM): 94.1%
- viability, T/C (second compound 3.16 µM, first compound 0.316 µM): 76.1%
- viability, T/C (second compound 3.16 µM, first compound 1 µM): 83.9%
- viability, T/C (second compound 10 µM, first compound 0.00316 µM): 105%
- viability, T/C (second compound 10 µM, first compound 0.01 µM): 84.8%
- viability, T/C (second compound 10 µM, first compound 0.0316 µM): 90.4%
- viability, T/C (second compound 10 µM, first compound 0.1 µM): 92.3%
- viability, T/C (second compound 10 µM, first compound 0.316 µM): 87.2%
- viability, T/C (second compound 10 µM, first compound 1 µM): 56.7%

SMILES: C=CC(=O)Nc1cc(Nc2nccc(-c3cn(C)c4ccccc34)n2)c(OC)cc1N(C)CCN(C)C + C=CC(=O)N1CCN(c2nc(OCC3CCCN3C)nc3c(F)c(-c4nc(N)cc(C)c4C(F)(F)F)c(Cl)cc23)C(C)C1
- IC50 (second compound 0.00316 µM): > 1000 nM
- IC50 (second compound 0.01 µM): > 1000 nM
- IC50 (second compound 0.0316 µM): > 1000 nM
- IC50 (second compound 0.1 µM): > 1000 nM
- IC50 (second compound 0.316 µM): > 1000 nM
- IC50 (second compound 1 µM): > 1000 nM
- viability, T/C (second compound 0.00316 µM, first compound 0.00316 µM): 106%
- viability, T/C (second compound 0.00316 µM, first compound 0.01 µM): 98.8%
- viability, T/C (second compound 0.00316 µM, first compound 0.0316 µM): 98.7%
- viability, T/C (second compound 0.00316 µM, first compound 0.1 µM): 100%
- viability, T/C (second compound 0.00316 µM, first compound 0.316 µM): 101%
- viability, T/C (second compound 0.00316 µM, first compound 1 µM): 83.8%
- viability, T/C (second compound 0.01 µM, first compound 0.00316 µM): 104%
- viability, T/C (second compound 0.01 µM, first compound 0.01 µM): 95%
- viability, T/C (second compound 0.01 µM, first compound 0.0316 µM): 103%
- viability, T/C (second compound 0.01 µM, first compound 0.1 µM): 96.2%
- viability, T/C (second compound 0.01 µM, first compound 0.316 µM): 92.7%
- viability, T/C (second compound 0.01 µM, first compound 1 µM): 82.6%
- viability, T/C [1]: 95.8%
- viability, T/C [2]: 93.1%
- viability, T/C [3]: 88.3%
- viability, T/C [4]: 90.7%
- viability, T/C [5]: 79.6%
- viability, T/C [6]: 80.1%
- viability, T/C [7]: 93.6%
- viability, T/C [8]: 88.1%
- viability, T/C [9]: 88.9%
- viability, T/C [10]: 88.1%
- viability, T/C [11]: 76.2%
- viability, T/C [12]: 70.8%
- viability, T/C [13]: 90.8%
- viability, T/C [14]: 94.1%
- viability, T/C [15]: 82.3%
- viability, T/C [16]: 89.1%
- viability, T/C [17]: 79.8%
- viability, T/C [18]: 72.6%
- viability, T/C [19]: 86.5%
- viability, T/C [20]: 91.8%
- viability, T/C [21]: 83.6%
- viability, T/C [22]: 76.9%
- viability, T/C [23]: 76.6%
- viability, T/C [24]: 73.5%
